Experimental data reported in patent publication US10494355B2, “Oxadiazole amine derivative compounds as histone deacetylase 6 inhibitor, and the pharmaceutical composition comprising the same” (Chong Kun Dang Pharmaceutical Corp., priority 2015, dated 2019).
pIC50: −log10 of the molar value.

Key:
[1] = molecular target: T1, human recombinant HDAC6 (Homo sapiens, UniProt Q9UBN7); assay: HDAC6 enzyme activity inhibition assay (HDAC Fluorimetric Drug Discovery Kit); format: biochemical; settings: 30° C. 60 minutes
T1 construct: purchased Calbiochem 382180
T1 sequence (Q9UBN7 1-1215): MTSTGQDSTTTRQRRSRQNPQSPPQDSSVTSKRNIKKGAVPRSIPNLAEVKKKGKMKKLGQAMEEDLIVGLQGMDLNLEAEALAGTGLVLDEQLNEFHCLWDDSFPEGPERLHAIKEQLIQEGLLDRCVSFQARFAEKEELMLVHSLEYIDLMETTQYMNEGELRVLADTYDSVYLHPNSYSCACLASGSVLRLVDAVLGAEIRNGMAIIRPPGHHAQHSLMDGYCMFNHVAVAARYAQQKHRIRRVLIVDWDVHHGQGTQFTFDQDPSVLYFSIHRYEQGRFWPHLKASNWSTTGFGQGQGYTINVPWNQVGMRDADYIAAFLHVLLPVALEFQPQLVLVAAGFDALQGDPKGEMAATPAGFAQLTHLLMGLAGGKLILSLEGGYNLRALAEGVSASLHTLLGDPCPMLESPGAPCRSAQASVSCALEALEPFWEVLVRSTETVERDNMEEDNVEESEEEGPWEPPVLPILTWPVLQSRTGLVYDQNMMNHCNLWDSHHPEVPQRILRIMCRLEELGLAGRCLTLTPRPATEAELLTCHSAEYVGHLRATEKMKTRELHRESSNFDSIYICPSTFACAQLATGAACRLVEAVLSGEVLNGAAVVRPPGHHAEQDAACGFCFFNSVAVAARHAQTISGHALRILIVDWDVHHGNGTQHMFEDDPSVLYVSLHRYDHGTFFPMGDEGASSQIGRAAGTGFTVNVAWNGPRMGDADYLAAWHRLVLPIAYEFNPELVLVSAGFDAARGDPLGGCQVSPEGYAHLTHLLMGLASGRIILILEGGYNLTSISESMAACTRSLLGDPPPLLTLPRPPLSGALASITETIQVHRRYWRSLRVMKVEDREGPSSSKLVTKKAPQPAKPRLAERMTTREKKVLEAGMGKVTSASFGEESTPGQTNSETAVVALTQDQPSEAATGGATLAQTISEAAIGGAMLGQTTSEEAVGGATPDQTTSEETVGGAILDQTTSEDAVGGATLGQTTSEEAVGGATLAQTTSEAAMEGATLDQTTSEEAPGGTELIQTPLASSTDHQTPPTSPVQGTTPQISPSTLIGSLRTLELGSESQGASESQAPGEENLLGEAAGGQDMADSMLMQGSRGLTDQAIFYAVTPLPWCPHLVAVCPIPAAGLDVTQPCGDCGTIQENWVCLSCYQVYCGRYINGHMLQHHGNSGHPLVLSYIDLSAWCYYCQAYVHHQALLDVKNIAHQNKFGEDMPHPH
Experimental: (§1) In order to examine the HDAC6 selectivity of the compounds of formula I of the present invention by HDAC1 and HDAC6 enzymatic activity inhibition assays, an experiment was performed using a conventional substance as a control.
(§2) HDAC enzyme activity was measured using a HDAC Fluorimetric Drug Discovery Kit (BML-AK511, 516, Enzo Life Science). For the HDAC1 enzyme activity test, human recombinant HDAC1 (BML-SE456) was used as an enzyme source, and Fluor de Lys®-“SIRT1 (BNL-KI177) was used as a substrate. A 5-fold dilution of the compound was seeded into a 96-well plate, and then 0.3 μg of the enzyme and 10 μM of the substrate were added to each well of the plate and allowed to react at 30° C. for 60 minutes. Then, Fluor de Lys®-Developer II (BML-KI176) was added thereto and allowed to react for 30 minutes, after which the fluorescence value (Ex 360, Em 460) was measured using a multi-plate reader (Flexstation 3, Molecular Device). The HDAC6 enzyme was tested using human recombinant HDAC6 (382180) (Calbiochem) according to the same protocol as the HDAC1 enzyme activity test method. Based on the resulting values, each IC50 value was calculated using GraphPad Prism4.0 program.

[2] = molecular target: T2, human recombinant HDAC1 (Homo sapiens, UniProt Q13547); assay: HDAC1 enzyme activity inhibition assay (HDAC Fluorimetric Drug Discovery Kit); format: biochemical; settings: human recombinant HDAC1, 10 μM substrate, 30° C. 60 minutes
T2 construct: purchased Enzo Life Science BML-SE456
T2 sequence (Q13547 whole entry): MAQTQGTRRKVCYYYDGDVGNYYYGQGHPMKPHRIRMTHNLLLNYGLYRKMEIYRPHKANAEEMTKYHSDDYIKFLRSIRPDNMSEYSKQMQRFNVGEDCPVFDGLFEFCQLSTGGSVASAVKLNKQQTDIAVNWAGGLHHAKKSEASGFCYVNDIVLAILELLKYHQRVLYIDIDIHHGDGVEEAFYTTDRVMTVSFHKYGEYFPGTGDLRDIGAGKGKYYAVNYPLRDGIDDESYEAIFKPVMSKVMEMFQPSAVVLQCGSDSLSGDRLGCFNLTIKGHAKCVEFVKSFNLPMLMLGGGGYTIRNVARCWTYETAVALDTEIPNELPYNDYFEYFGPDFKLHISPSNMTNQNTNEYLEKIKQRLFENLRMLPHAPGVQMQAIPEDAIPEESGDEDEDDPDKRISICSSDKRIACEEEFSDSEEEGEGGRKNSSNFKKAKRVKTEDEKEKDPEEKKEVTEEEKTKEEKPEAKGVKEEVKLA
Experimental: as §1, §2

Compound	pIC50 [1]	pIC50 [2]
FC(F)c1nnc(-c2cnc(NC3(c4ccc5c(c4)OCO5)CCC3)nc2)o1 [Compound 1820, N-(1-(benzo[d][1,3]dioxol-5-yl)cyclobutyl)-5-(5-(difluoromethyl)-1,3,4-oxadiazol-2-yl)pyrimidin-2-amine]	7.08	< 5.00
Fc1ccc(Cl)cc1C1(Nc2ncc(-c3nnc(C(F)(F)F)o3)cn2)CCC1 [Compound 1964, N-(1-(5-chloro-2-fluorophenyl)cyclobutyl)-5-(5-(trifluoromethyl)-1,3,4-oxadiazol-2-yl)pyrimidin-2-amine]	5.73	< 5.00
Fc1ccc(C2(Nc3ncc(-c4nnc(C(F)F)o4)cn3)CCC2)c(F)c1 [Compound 2027, 5-(5-(difluoromethyl)-1,3,4-oxadiazol-2-yl)-N-(1-(2,4-difluorophenyl)cyclobutyl)pyrimidin-2-amine]	7.05	< 5.00
FC(F)c1nnc(-c2cnc(NC3(c4ccccn4)CCC3)nc2)o1 [Compound 1640, 5-(5-(difluoromethyl)-1,3,4-oxadiazol-2-yl)-N-(1-(pyridin-2-yl)cyclobutyl)pyrimidin-2-amine]	7.55	< 5.00
FC(F)c1nnc(-c2cnc(NC3(c4ccccc4)CCNCC3)nc2)o1 [Compound 1678, 5-(5-(difluoromethyl)-1,3,4-oxadiazol-2-yl)-N-(4-phenylpiperidin-4-yl)pyrimidin-2-amine]	6.65	< 5.00
FC(F)(F)c1nnc(-c2cnc(NC3(c4ccccc4)CCCCC3)nc2)o1 [Compound 1582, N-(1-phenylcyclohexyl)-5-(5-(trifluoromethyl)-1,3,4-oxadiazol-2-yl)pyrimidin-2-amine]	5.90	< 5.00
Fc1cc(F)c(C2(Nc3ncc(-c4nnc(C(F)F)o4)cn3)CCC2)cc1F [Compound 1826, 5-(5-(difluoromethyl)-1,3,4-oxadiazol-2-yl)-N-(1-(2,4,5-trifluorophenyl)cyclobutyl)pyrimidin-2-amine]	6.92	< 5.00
Fc1cc(Cl)ccc1C1(Nc2ncc(-c3nnc(C(F)F)o3)cn2)CC1 [Compound 2056, N-(1-(4-chloro-2-fluorophenyl)cyclopropyl)-5-(5-(difluoromethyl)-1,3,4-oxadiazol-2-yl)pyrimidin-2-amine]	7.46	< 5.00
FC(F)c1nnc(-c2cnc(NC3(c4ccc(C5CCN(C6COC6)CC5)cc4)CCC3)nc2)o1 [Compound 2023, 5-(5-(difluoromethyl)-1,3,4-oxadiazol-2-yl)-N-(1-(4-(1-(oxetan-3-yl)piperidin-4-yl)phenyl)cyclobutyl)pyrimidin-2-amine]	6.41	< 5.00
COc1ccccc1C1(Nc2ncc(-c3nnc(C(F)F)o3)cn2)CC1 [Compound 2047, 5-(5-(difluoromethyl)-1,3,4-oxadiazol-2-yl)-N-(1-(2-methoxyphenyl)cyclopropyl)pyrimidin-2-amine]	7.49	< 5.00
FC(F)c1nnc(-c2cnc(NC3(c4ccc(Cl)cc4)CC3)nc2)o1 [Compound 2052, N-(1-(4-chlorophenyl)cyclopropyl)-5-(5-(difluoromethyl)-1,3,4-oxadiazol-2-yl)pyrimidin-2-amine]	7.12	< 5.00
FC(F)(F)c1nnc(-c2cnc(NC3(c4ccccn4)CCC3)nc2)o1 [Compound 1641, N-(1-(pyridin-2-yl)cyclobutyl)-5-(5-(trifluoromethyl)-1,3,4-oxadiazol-2-yl)pyrimidin-2-amine]	7.24	< 5.00
Fc1ccc(C2(Nc3ncc(-c4nnc(C(F)F)o4)cn3)CC2)cc1F [Compound 2058, 5-(5-(difluoromethyl)-1,3,4-oxadiazol-2-yl)-N-(1-(3,4-difluorophenyl)cyclopropyl)pyrimidin-2-amine]	7.41	< 5.00
Fc1ccc(C2(Nc3ncc(-c4nnc(C(F)F)o4)cn3)CCC2)cc1Cl [Compound 1817, N-(1-(3-chloro-4-fluorophenyl)cyclobutyl)-5-(5-(difluoromethyl)-1,3,4-oxadiazol-2-yl)pyrimidin-2-amine]	7.11	< 5.00
FC(F)(F)c1nnc(-c2cnc(NC3(c4cccc(Cl)c4Cl)CCC3)nc2)o1 [Compound 1833, N-(1-(2,3-dichlorophenyl)cyclobutyl)-5-(5-(trifluoromethyl)-1,3,4-oxadiazol-2-yl)pyrimidin-2-amine]	6.12	< 5.00
FC(F)c1nnc(-c2cnc(NC3(c4ccc(C(F)(F)F)cc4)CCC3)nc2)o1 [Compound 2043, 5-(5-(difluoromethyl)-1,3,4-oxadiazol-2-yl)-N-(1-(4-(trifluoromethyl)phenyl)cyclobutyl)pyrimidin-2-amine]	6.56	< 5.00
FC(F)c1nnc(-c2cnc(NC3(c4ccccc4Cl)CCC3)nc2)o1 [Compound 1614, N-(1-(2-chlorophenyl)cyclobutyl)-5-(5-(difluoromethyl)-1,3,4-oxadiazol-2-yl)pyrimidin-2-amine]	7.54	< 5.00
Fc1ccccc1C1(Nc2ncc(-c3nnc(C(F)F)o3)cn2)CC1 [Compound 1683, 5-(5-(difluoromethyl)-1,3,4-oxadiazol-2-yl)-N-(1-(2-fluorophenyl)cyclopropyl)pyrimidin-2-amine]	7.68	< 5.00
Fc1ccccc1C1(Nc2ncc(-c3nnc(C(F)F)o3)cn2)CCC1 [Compound 1609, 5-(5-(difluoromethyl)-1,3,4-oxadiazol-2-yl)-N-(1-(2-fluorophenyl)cyclobutyl)pyrimidin-2-amine]	7.64	< 5.00
CCN1CCC(c2ccc(C3(Nc4ncc(-c5nnc(C(F)F)o5)cn4)CCC3)cc2)CC1 [Compound 2036, 5-(5-(difluoromethyl)-1,3,4-oxadiazol-2-yl)-N-(1-(4-(1-ethylpiperidin-4-yl)phenyl)cyclobutyl)pyrimidin-2-amine]	6.32	< 5.00
Cc1cccc(C2(Nc3ncc(-c4nnc(C(F)F)o4)cn3)CCC2)c1 [Compound 1673, 5-(5-(difluoromethyl)-1,3,4-oxadiazol-2-yl)-N-(1-(m-tolyl)cyclobutyl)pyrimidin-2-amine]	7.60	< 5.00
Fc1ccccc1C1(Nc2ncc(-c3nnc(C(F)(F)F)o3)cn2)CCC1 [Compound 1610, N-(1-(2-fluorophenyl)cyclobutyl)-5-(5-(trifluoromethyl)-1,3,4-oxadiazol-2-yl)pyrimidin-2-amine]	6.82	< 5.00
Oc1cccc(C2(Nc3ncc(-c4nnc(C(F)F)o4)cn3)CCC2)c1 [Compound 1761, 3-(1-((5-(5-(difluoromethyl)-1,3,4-oxadiazol-2-yl)pyrimidin-2-yl)amino)cyclobutyl)phenol]	7.60	< 5.00
Fc1ccc(C2(Nc3ncc(-c4nnc(C(F)(F)F)o4)cn3)CCC2)cc1Cl [Compound 1818, N-(1-(3-chloro-4-fluorophenyl)cyclobutyl)-5-(5-(trifluoromethyl)-1,3,4-oxadiazol-2-yl)pyrimidin-2-amine]	6.12	< 5.00
Fc1ccc(C2(Nc3ncc(-c4nnc(C(F)F)o4)cn3)CC2)cc1F [Compound 1779, 5-(5-(difluoromethyl)-1,3,4-oxadiazol-2-yl)-N-(1-(3,4-difluorophenyl)cyclopropyl)pyrimidin-2-amine]	6.87	–
